Here are results for ten compounds from US10300067B2, “Tetrahydropyridopyrimidine compound or salt thereof” (TAIHO PHARMACEUTICAL CO., LTD., priority 2014, dated 2019).

Chain of human androgen receptor (P10275 whole entry): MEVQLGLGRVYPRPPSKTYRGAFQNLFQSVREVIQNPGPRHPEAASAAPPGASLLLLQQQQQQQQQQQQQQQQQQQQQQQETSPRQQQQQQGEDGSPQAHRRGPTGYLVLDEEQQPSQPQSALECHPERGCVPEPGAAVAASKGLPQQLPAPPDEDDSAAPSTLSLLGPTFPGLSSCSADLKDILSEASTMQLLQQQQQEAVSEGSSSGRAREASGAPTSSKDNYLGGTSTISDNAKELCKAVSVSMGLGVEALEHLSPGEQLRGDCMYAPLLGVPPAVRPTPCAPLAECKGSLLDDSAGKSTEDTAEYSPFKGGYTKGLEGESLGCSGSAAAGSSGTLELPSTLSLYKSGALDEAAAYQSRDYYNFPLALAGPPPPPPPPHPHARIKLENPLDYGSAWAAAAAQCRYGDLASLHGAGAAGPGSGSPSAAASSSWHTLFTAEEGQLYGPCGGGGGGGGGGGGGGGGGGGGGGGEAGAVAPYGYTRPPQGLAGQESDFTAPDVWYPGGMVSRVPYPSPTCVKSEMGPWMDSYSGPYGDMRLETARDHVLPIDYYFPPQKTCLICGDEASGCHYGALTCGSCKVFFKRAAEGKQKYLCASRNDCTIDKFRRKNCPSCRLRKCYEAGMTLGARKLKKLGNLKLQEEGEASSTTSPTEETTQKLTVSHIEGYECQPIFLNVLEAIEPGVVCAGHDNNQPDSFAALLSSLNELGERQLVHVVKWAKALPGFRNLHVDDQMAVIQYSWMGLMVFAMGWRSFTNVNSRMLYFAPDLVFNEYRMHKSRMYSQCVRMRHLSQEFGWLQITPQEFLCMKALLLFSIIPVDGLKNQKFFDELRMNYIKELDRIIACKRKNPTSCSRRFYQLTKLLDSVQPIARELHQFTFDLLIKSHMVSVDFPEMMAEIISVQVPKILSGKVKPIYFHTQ

For the first assay, the target named is human androgen receptor (Homo sapiens (Human), UniProt P10275). Kind of assay: Antagonist activity for AR (pMMTV-luc reporter transcription activity in transfected COS-7 cells, DHT 1 nmol/L). The class given is cell-based. Particulars: 50% transcription activity inhibition concentration; COS-7 cells with pMMTV-luc and pEX-hAR, DHT 1 nmol/L, 24 hours. The procedure:
Antagonist activity for AR was evaluated according to the following method. COS-7 cells (ATCC) were transfected with pMMTV-luc vector (reporter plasmid having, as an androgen response element, […] long terminal repeat) and pEX-hAR vector (human androgen receptor expression vector: which expresses human AR gene under control of CMV promoter) by using Nucleofector (registered trademark) Kit R (Lonza) as a transfection reagent and Amaxa (Lonza). The COS-7 cells obtained after transfection were seeded in a clear bottom 96 well microplate (BD) at 1.5×10^4/well with phenol red free RPMI1640 containing 10% charcoal-treated fetal bovine serum (hereinbelow, DCC-FBS) (hereinbelow, the medium is referred to as an evaluation medium), and then cultured overnight. […] Then, the transcription activity value was measured. The transcription activity was measured by using Bright-Glo™ Luciferase Assay System (Promega).
Turning to `N#Cc1ccc(C(F)(F)F)cc1N1CCc2c(ncnc2Nc2ccc(C(=O)NCC(F)(F)F)cn2)C1` [Comparative Example 9, 6-((7-(2-Cyano-5-(trifluoromethyl)phenyl)-5,6,7,8-tetrahydropyrido[3,4-d]pyrimidin-4-yl)amino)-N-(2,2,2-trifluoroethyl)nicotinamide, reference compound], the IC50 is greater than 10000 nM.
The same measure, in the same setting: under `CC(C)(O)c1cnc(Nc2ncnc3c2CCN(c2ccc(C#N)c(Cl)c2)C3)cc1F` [Example 45, 2-Chloro-4-(4-((4-fluoro-5-(2-hydroxypropan-2-yl)pyridin-2-yl)amino)-5,6-dihydropyrido[3,4-d]pyrimidin-7 (8H)-yl)benzonitrile] stands 940 nM.
The same measure, in the same setting: the figure for `N#Cc1ccc(N2CCc3c(ncnc3Nc3ccc(CC(=O)NCC(F)(F)F)cn3)C2)cc1C(F)(F)F` [Example 22, 2-(6-((7-(4-Cyano-3-(trifluoromethyl)phenyl)-5,6,7,8-tetrahydropyrido[3,4-d]pyrimidin-4-yl)amino)pyridin-3-yl)-N-(2,2,2-trifluoroethyl)acetamide] is 370 nM.
In the case of `CC(C)(O)c1ccc(Nc2ncnc3c2CCN(c2ccc(C#N)cc2)C3)nc1` [Comparative Example 11, 4-(4-((5-(2-Hydroxypropan-2-yl)pyridin-2-yl)amino)-5,6-dihydropyrido[3,4-d]pyrimidin-7(8H)-yl)benzonitrile, reference compound], the IC50 is greater than 10000 nM.
On the same count and under the same terms, under `CC(C)(COc1ccc(Nc2ncnc3c2CCN(c2ccc(C#N)c(Cl)c2)C3)nc1)n1cnnn1` [Example 53, 2-Chloro-4-(4-((5-(2-methyl-2-(1H-tetrazol-1-yl)propoxy)pyridin-2-yl)amino)-5,6-dihydropyrido[3,4-d]pyrimidin-7(8H)-yl)benzonitrile] stands 55 nM.
As for `CC(C)(O)c1ccc(Nc2ncnc3c2CCN(c2ccc(C#N)cc2Cl)C3)nc1` [Comparative Example 5, 3-Chloro-4-(4-((5-(2-hydroxypropan-2-yl)pyridin-2-yl)amino)-5,6-dihydropyrido[3,4-d]pyrimidin-7(8H)-yl)benzonitrile, reference compound], the IC50 was greater than 10000 nM.
As for `CC(C)(O)C1CCN(C(=O)c2nnc(Nc3ncnc4c3CCN(c3ccc(C#N)c(C(F)(F)F)c3)C4)o2)CC1` [Example 43, 4-(4-((5-(4-(2-Hydroxypropan-2-yl)piperidin-1-carbonyl)-1,3,4-oxadiazol-2-yl)amino)-5,6-dihydropyrido[3,4-d]pyrimidin-7(8H)-yl)-2-(trifluoromethyl)benzonitrile], the IC50 came to 790 nM.
As to `N#Cc1cccc(N2CCc3c(ncnc3Nc3ccc(C(=O)NCC(F)(F)F)cn3)C2)c1C(F)(F)F` [Comparative Example 10, 6-((7-(3-Cyano-2-(trifluoromethyl)phenyl)-5,6,7,8-tetrahydropyrido[3,4-d]pyrimidin-4-yl)amino)-N-(2,2,2-trifluoroethyl)nicotinamide, reference compound], the IC50 was greater than 10000 nM.
The same measure, in the same setting: under `N#Cc1cc(C(F)(F)F)ccc1N1CCc2c(ncnc2Nc2ccc(C(=O)NCC(F)(F)F)cn2)C1` [Comparative Example 8, 6-((7-(2-Cyano-4-(trifluoromethyl)phenyl)-5,6,7,8-tetrahydropyrido[3,4-d]pyrimidin-4-yl)amino)-N-(2,2,2-trifluoroethyl)nicotinamide, reference compound] stands greater than 10000 nM; under `CC(C)(O)c1ccc(Nc2ncnc3c2CCN(c2cccc(Cl)c2C#N)C3)nc1` [Comparative Example 7, 2-Chloro-6-(4-((5-(2-hydroxypropan-2-yl)pyridin-2-yl)amino)-5,6-dihydropyrido[3,4-d]pyrimidin-7 (8H)-yl)benzonitrile, reference compound], greater than 10000 nM.

The assay is the same for the next values; noted with them: COS-7 reporter assay.
For `CC(C)(O)c1ccc(Nc2ncnc3c2CCN(c2ccc(C#N)cc2)C3)nc1` [Comparative Example 11, 4-(4-((5-(2-Hydroxypropan-2-yl)pyridin-2-yl)amino)-5,6-dihydropyrido[3,4-d]pyrimidin-7(8H)-yl)benzonitrile, reference compound], the “antagonist activity for AR (in words)” value was “did not show the antagonist activity for AR”.
